Source: patent US20080287469A1, “Phosphoinositide 3-Kinase Inhibitors for Inhibiting Leukocyte Accumulation” (priority 2005, published 2008)

Assays:
[1] = system: TNFα-stimulated HUVEC monolayers; experiment: Laminar flow assay: neutrophil capture by TNFα-stimulated HUVEC monolayers; type: cell-based, human; conditions: wall shear rate 200 s^−1; IC87114 2 μM, LY294002 10 μM, Bay 11-7082 10 μM, CL3 50 μg/ml
Protocol: Peripheral blood neutrophils were isolated from healthy volunteers and infused over the endothelial cell monolayer that was incorporated into a parallel plate flow chamber (GlycoTech) for 5 min at a shear rate of 200 s^−1. (Puri et al., Blood, 103:3448-3456 (2004)) Approval was obtained from the Washington University institutional review board for these studies. Informed consent was provided according to the Declaration of Helsinki. Neutrophil-endothelial cell interactions were recorded and analyzed as previously described. (Puri et al., Blood, 103:3448-3456 (2004)) For E-selectin blockade, HUVECs were incubated with mAb CL3 (50 μg/ml, 15 min) prior to adhesion assays.

[2] = system: E-selectin; experiment: Flow cytometric analysis of E-selectin expression on TNFα-stimulated HUVECs; conditions: TNFα 4 hr; IC87114 2 to 50 μM, LY294002 10 μM, Bay 11-7082 10 μM
[3] = Plasma concentration of the compound after oral administration; type: in vivo, mice; conditions: 4 h post-oral administration; P-selectin−/− mice
Protocol: Animals received a single oral dose of either a compound in accordance with the invention (25 mg/kg for mice and 20 or 40 mg/kg for rats) or vehicle (PEG-400). Blood samples were subsequently drawn at indicated time points and plasma concentration of the compound determined after liquid-liquid extraction by LC/MS. The lower quantification limit was 50 ng/ml. Plasma samples from control animals (vehicle alone) were used as the blank control.

[4] = target: T1, p110δ (Mus musculus, UniProt O35904); experiment: Immunoprecipitation and PI3K activity assay: p110δ from spleen extracts of WT mice; type: biochemical; conditions: 10 μM; vs vehicle control
T1 construct: this enzyme isolated from spleen extracts of WT animals; from tissue; host or cells: mouse spleen
Protocol: Spleens from WT mice were pulverized in liquid nitrogen cooled mortar and solubilized in PI3-kinase lysis buffer (50 mM Tris-HCl (pH 7.4), 1% Triton X-100, 150 mM NaCl, 1 mM EDTA and a cocktail of inhibitors to serine and cysteine proteases (Complete™, Mini, Roch Applied Science, IN). HUVEC lysates were prepared as described. (Puri et al., Blood, 103:3448-3456 (2004)) Lysates were precleared with protein A-Sepharose and aliquots of the supernatants were incubated with antibodies specific for p110δ and p110γ, or control antibody for 1 hour at 4° C., followed by addition of protein A-Sepharose for 2 hours at 4° C. Precipitates were washed once with lysis buffer, twice with 0.1 M Tris-HCl, pH 7.4; 5 mM LiCl; and 0.1 mM sodium orthovanadate and once with PI 3-kinase buffer containing 20 mM Hepes, pH 7.4, 10 μM ATP, 5 mM MgCl2, plus 50 μg/ml horse IgG (Pierce, Rockford, Ill.). Lipid kinase activity was determined as previously described. (Sadhu et al., J. Immunol., 170:2647-2654 (2003)) The radioactive product PIP3 was captured onto a 96-well polyvinylidene difluoride filter plate (Millipore, Billerica, Mass.) and the bound radioactivity was quantitated with Microbeta Liquid Scintillation Counter (PerkinElmer Life Sciences, Boston, Mass.).

[5] = system: neutrophils on inflamed venular endothelium (E-selectin-dependent adhesion); experiment: Intravital microscopy of TNFα-stimulated cremaster muscle venules, P-selectin−/− mice; type: in vivo; conditions: oral, one hour prior to TNFα-stimulation, vs vehicle
Protocol: The surgical preparation of animals for all in vivo studies was performed using standard techniques. (Puri et al., Blood, 103:3448-3456 (2004)) An inflammatory response in the cremaster muscle (CM) venules of mice was induced by an intrascrotal injection of recombinant murine TNFα (20 ng/mouse). The tissue was surgically exposed 3 h post-cytokine stimulation and viewed on an intravital microscope (IV-500; Mikron instruments). GFP-expressing cells were visualized in the microcirculation through X^60 water immersion objective (Zeiss) using an intensified camera (VE1000SIT; Dage mti) and epifluorescence illumination. Rolling fraction was defined as the percentage of cells that interact with a given region of venule as compared to the total number of cells that enter that vessel (interacting and non-interacting) during the same time period. Venular shear rates were determined from optical Doppler velocimeter measurements of centerline erythrocyte velocity. Video images were recorded using a Hi8 VCR (Sony) and analysis of performed using a PC-based image analysis system.
Although P-selectin expressed on endothelium predominates in the initial capture of circulating neutrophils in acute tissue injury, it is E-selectin that accounts for the phenotypically slow rolling movements of these cells in microvessels of TNFα-stimulated CM. […]

[6] = target: p110δ (Homo sapiens, UniProt O00329); conditions: cited from earlier work
p110δ (Homo sapiens, UniProt O00329), sequence (O00329 whole entry, species assumed): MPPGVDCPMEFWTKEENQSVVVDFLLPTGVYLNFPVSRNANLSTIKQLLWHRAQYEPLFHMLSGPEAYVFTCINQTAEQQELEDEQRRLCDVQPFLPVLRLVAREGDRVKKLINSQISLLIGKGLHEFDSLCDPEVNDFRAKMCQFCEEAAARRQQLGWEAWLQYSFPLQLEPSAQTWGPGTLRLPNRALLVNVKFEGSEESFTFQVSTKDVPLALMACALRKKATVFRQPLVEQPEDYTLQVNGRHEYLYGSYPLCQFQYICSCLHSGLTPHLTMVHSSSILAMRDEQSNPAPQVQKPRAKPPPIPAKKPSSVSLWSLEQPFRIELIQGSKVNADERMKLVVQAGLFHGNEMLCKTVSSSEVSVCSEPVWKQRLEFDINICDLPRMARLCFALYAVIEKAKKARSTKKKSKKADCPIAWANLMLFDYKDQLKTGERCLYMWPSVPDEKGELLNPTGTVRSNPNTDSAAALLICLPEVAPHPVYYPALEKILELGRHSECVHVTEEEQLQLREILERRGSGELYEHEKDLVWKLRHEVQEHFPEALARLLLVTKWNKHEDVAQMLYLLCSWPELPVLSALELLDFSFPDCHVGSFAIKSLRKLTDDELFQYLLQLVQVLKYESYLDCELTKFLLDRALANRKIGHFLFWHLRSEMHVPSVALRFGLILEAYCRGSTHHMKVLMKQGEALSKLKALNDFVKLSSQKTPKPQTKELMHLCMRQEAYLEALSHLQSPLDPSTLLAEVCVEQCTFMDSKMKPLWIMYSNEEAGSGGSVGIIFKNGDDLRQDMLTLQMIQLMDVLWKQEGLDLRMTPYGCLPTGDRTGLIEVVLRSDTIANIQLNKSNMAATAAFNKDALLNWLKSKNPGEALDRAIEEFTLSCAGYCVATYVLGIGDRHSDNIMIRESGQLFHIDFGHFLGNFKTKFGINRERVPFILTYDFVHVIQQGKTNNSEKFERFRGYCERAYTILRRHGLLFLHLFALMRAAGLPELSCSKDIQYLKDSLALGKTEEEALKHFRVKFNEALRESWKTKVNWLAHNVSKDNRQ
p110δ (Homo sapiens, UniProt O00329), sequence (P27986 whole entry partner, species assumed): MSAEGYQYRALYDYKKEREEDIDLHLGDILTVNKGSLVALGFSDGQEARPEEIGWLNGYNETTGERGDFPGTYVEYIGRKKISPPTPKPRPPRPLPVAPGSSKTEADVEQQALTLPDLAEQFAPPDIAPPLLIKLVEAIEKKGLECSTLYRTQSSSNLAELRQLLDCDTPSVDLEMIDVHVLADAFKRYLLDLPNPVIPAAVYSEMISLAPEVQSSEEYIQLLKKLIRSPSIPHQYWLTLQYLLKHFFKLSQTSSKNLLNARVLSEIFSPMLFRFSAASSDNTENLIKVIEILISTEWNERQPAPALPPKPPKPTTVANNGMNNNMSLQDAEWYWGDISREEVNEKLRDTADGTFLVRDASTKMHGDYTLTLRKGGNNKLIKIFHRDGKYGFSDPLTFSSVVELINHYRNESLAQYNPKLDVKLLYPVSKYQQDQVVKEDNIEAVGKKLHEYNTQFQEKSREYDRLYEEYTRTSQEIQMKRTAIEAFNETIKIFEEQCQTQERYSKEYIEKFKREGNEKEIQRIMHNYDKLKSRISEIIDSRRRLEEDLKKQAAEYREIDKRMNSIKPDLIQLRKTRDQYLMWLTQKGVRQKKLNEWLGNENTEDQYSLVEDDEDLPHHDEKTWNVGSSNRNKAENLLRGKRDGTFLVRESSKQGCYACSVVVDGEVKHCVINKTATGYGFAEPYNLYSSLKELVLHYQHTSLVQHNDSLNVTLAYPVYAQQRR

T1 sequence (O35904 whole entry): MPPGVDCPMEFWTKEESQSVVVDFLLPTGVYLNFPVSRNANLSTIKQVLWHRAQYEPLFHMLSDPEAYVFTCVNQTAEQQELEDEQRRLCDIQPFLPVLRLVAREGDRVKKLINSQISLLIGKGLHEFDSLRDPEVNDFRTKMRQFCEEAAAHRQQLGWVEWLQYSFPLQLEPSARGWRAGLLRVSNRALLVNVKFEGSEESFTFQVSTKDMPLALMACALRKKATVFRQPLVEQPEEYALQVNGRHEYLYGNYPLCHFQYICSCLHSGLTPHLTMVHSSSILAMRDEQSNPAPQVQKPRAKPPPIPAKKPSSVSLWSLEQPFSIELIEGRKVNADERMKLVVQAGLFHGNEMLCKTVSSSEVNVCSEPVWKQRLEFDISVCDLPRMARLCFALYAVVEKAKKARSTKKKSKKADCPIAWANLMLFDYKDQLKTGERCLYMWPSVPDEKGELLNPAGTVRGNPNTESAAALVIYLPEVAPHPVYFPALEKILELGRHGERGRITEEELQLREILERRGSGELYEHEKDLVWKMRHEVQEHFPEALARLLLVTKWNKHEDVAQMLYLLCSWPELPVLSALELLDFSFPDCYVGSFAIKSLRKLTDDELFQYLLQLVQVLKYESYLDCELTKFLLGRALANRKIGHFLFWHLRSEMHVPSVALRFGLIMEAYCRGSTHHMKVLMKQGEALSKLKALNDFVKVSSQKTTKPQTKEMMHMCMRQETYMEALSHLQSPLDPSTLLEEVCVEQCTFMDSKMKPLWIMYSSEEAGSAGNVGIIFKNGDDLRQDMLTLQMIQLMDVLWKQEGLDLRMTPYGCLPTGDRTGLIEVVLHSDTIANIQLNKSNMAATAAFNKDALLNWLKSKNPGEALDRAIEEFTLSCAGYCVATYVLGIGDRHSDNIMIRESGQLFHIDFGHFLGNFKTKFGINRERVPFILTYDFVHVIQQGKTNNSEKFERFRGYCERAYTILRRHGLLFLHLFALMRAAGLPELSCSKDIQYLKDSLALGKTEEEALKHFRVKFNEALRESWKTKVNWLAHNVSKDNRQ
T1 sequence (P26450 whole entry partner): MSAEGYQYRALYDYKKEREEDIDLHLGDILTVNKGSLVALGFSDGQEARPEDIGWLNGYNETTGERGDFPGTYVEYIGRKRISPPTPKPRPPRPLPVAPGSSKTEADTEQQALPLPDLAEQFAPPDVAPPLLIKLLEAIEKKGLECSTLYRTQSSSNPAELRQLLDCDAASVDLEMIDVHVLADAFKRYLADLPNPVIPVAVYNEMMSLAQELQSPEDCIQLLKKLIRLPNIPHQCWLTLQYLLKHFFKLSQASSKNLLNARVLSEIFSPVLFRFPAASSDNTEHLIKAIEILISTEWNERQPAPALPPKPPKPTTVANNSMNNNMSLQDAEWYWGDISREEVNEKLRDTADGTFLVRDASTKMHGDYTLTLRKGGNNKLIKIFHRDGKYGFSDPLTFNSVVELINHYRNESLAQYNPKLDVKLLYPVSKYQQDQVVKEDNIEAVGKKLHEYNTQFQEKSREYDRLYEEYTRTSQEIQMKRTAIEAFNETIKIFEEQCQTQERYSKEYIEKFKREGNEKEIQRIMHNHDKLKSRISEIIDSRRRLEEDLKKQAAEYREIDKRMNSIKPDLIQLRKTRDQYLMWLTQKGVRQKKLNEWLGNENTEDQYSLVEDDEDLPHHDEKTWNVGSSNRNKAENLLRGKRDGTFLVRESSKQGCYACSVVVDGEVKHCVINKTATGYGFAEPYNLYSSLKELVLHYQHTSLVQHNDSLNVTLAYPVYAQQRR

Compound | reduction of capture/attachment of untreated neutrophils [1] [%] | TNFα-induced expression of E-selectin [2] | mean plasma level of the compound [3] [µM] | reduction of PIP3 production by immuno-precipitated p110δ [4] [%] | reduction in neutrophil attachment to and rolling on inflamed venular endothelium [5] [%] | inhibition of delta activity ([6]; 10 μM) [%] | inhibition of p110δ activity at the mean plasma level ([6]; 4.9±2.7 μM, Sadhu et al.) [%]
Cc1ccc(S(=O)(=O)/C=C/C#N)cc1 [Bay 11-7082] | 100 | abrogated |  |  |  |  | 
Cc1ccccc1-n1c(Cn2cnc3c(N)ncnc32)nc2cccc(C)c2c1=O [IC87114] |  |  | 4.9 ± 2.7 | > 90 | > 88 | > 95 | > 85
